18 compounds from ChEMBL document CHEMBL1155968, “Synthesis, anticonvulsant and CNS depressant activity of some new bioactive 1-(4-substituted-phenyl)-3-(4-oxo-2-phenyl/ethyl-4H-quinazolin-3-yl)-urea” (Eur J Med Chem, 2009) can be followed below.

In data set [1] the test system is Mus musculus. Nature of the data set: Neurotoxicity in ip dosed albino mouse assessed as minimal motor impairment after 0.5 hrs by rotarod test. It counts as toxicity, organism-based. Particulars: in vivo.
The test system of data set [2] is Mus musculus. Nature of the data set: Anticonvulsant activity in ip dosed albino mouse assessed as inhibition of maximal electric shock-induced seizures after 4 hrs. Type of data set: functional.
Data set [3] concerns Mus musculus. In words: Neurotoxicity in ip dosed albino mouse assessed as minimal motor impairment after 4 hrs by rotarod test. It counts as toxicity, organism-based. The conditions noted are these: in vivo. For orientation: Falling from the rotarod earlier than controls is read as motor impairment.
The test system of data set [4] is Mus musculus. In words: Behavioral activity in albino mouse assessed as decrease in locomotor activity at 100 mg/kg, ip by actophotometer. It counts as functional. Particulars: route intraperitoneal.
Data set [5] deals with Mus musculus. Nature of the data set: Anticonvulsant activity in ip dosed albino mouse assessed as inhibition of maximal electric shock-induced seizures after 0.5 hrs. Type of data set: functional.
Data set [6] concerns Mus musculus. Nature of the data set: Anticonvulsant activity in ip dosed albino mouse assessed as inhibition of subcutaneous pentylenetetrazole-induced seizure after 4 hrs. It counts as functional.
Data set [7] deals with Mus musculus. Nature of the data set: Anticonvulsant activity in ip dosed albino mouse assessed as inhibition of subcutaneous pentylenetetrazole-induced seizure after 0.5 hrs. Type of data set: functional.
The subject of data set [8] is Rattus norvegicus. In words: Antidepressant activity in Wistar rat assessed as increase in immobility time at 100 mg/kg, ip after 60 min by forced swim pool method. Type of data set: functional. The conditions noted are these: route intraperitoneal.
The test system of data set [9] is Rattus norvegicus. Nature of the data set: Antidepressant activity against Wistar rat assessed as increase in immobility time at 30 mg/kg, ip after 60 mins by forced swim pool method. Type of data set: functional. Particulars: route intraperitoneal.

SMILES strings stand for the structures. Active and inactive are the calls of the source. The calls are words filed in the database; no cut-off is given here.

Consider `CCOc1ccc(NC(=O)Nn2c(CC)nc3ccccc3c2=O)cc1`, for which the Activity in the data set with Mus musculus [1], in the data set with Mus musculus [3] and in the data set on Mus musculus [5] was 300 mg/kg throughout. For the same compound, the outcome in the data set with Mus musculus [2], with Mus musculus [6] and in the data set on Mus musculus [7] was inactive. Further, the inhibition in vivo at 100 mg/kg in the data set on Mus musculus [4] came to 50%. The Time in the data set with Rattus norvegicus [8] stood at 161.43 s.
As for `CCc1ccc(NC(=O)Nn2c(CC)nc3ccccc3c2=O)cc1`, the Activity result with Mus musculus [1] and in the data set on Mus musculus [3] was “Not Active” each time. Further, the result in the data set on Mus musculus [2], in the data set on Mus musculus [5], in the data set with Mus musculus [6] and in the data set with Mus musculus [7] was inactive. Further, in the data set on Mus musculus [4], the inhibition in vivo at 100 mg/kg is 58%. For the same compound, in the data set on Rattus norvegicus [8], the Time amounted to 227.54 s.
In the case of `Cc1ccccc1NC(=O)Nn1c(-c2ccccc2)nc2ccccc2c1=O`, the Activity result in the data set on Mus musculus [1] and in the data set with Mus musculus [3] was “Not Active” in each case. Besides, the outcome with Mus musculus [2], in the data set on Mus musculus [5], with Mus musculus [6] and in the data set with Mus musculus [7] was inactive. For the same compound, the inhibition in vivo at 100 mg/kg with Mus musculus [4] worked out at 59%. Moreover, the Time in the data set with Rattus norvegicus [8] is reported as 162.13 s.
As for `Cc1cccc(NC(=O)Nn2c(-c3ccccc3)nc3ccccc3c2=O)c1`, the Activity entry in the data set on Mus musculus [1] and with Mus musculus [3] was “Not Active” in each case. In addition, the result in the data set on Mus musculus [2], in the data set on Mus musculus [5], in the data set with Mus musculus [6] and with Mus musculus [7] was inactive. In addition, the inhibition in vivo at 100 mg/kg with Mus musculus [4] was 59%. The Time with Rattus norvegicus [8] is 171.24 s.
As to `CCc1nc2ccccc2c(=O)n1NC(=O)Nc1ccc(F)cc1`, the Activity result in the data set on Mus musculus [1] and in the data set with Mus musculus [3] was “Not Active” throughout. The result with Mus musculus [2], in the data set with Mus musculus [5], in the data set with Mus musculus [6] and in the data set on Mus musculus [7] was inactive. Further, the inhibition in vivo at 100 mg/kg with Mus musculus [4] stood at 51%. In addition, the Time with Rattus norvegicus [8] was determined as 248.32 s.
Take `CCc1ccc(NC(=O)Nn2c(-c3ccccc3)nc3ccccc3c2=O)cc1`: the Activity entry with Mus musculus [1] and in the data set with Mus musculus [3] was “Not Active” in each case. In addition, the outcome in the data set with Mus musculus [2], in the data set on Mus musculus [5], with Mus musculus [6] and with Mus musculus [7] was inactive. Also, the inhibition in vivo at 100 mg/kg in the data set with Mus musculus [4] turned out to be 61%. For the same compound, the Time in the data set with Rattus norvegicus [8] is 213.13 s.
In the case of `CCc1nc2ccccc2c(=O)n1NC(=O)Nc1ccccc1C`, the Activity entry in the data set with Mus musculus [1] and in the data set with Mus musculus [3] was “Not Active” throughout. Moreover, the outcome in the data set with Mus musculus [2], in the data set on Mus musculus [5], in the data set with Mus musculus [6] and in the data set on Mus musculus [7] was inactive. Also, the inhibition in vivo at 100 mg/kg in the data set on Mus musculus [4] was 54%. The Time with Rattus norvegicus [8] was determined as 186.3 s.
As for `Cc1ccc(NC(=O)Nn2c(-c3ccccc3)nc3ccccc3c2=O)cc1`, the figures for the Activity in the data set on Mus musculus [1] and in the data set with Mus musculus [3] were 300 mg/kg and “Not Active”, respectively. Further, the result in the data set with Mus musculus [2], with Mus musculus [5], with Mus musculus [6] and with Mus musculus [7] was inactive. For the same compound, the inhibition in vivo at 100 mg/kg in the data set on Mus musculus [4] is 54%. In addition, in the data set with Rattus norvegicus [8], the Time worked out at 205.22 s.
`COc1ccc(NC(=O)Nn2c(-c3ccccc3)nc3ccccc3c2=O)cc1`: the Activity is 300 mg/kg in the data set with Mus musculus [1], “Not Active” in the data set with Mus musculus [3] and 300 mg/kg in the data set with Mus musculus [7]. For the same compound, the result in the data set with Mus musculus [2], in the data set with Mus musculus [5] and in the data set on Mus musculus [6] was inactive. In the data set on Mus musculus [4], the inhibition in vivo at 100 mg/kg was 52%. Further, in the data set on Rattus norvegicus [8], the Time amounted to 229.15 s.
For `O=C(Nc1ccccc1)Nn1c(-c2ccccc2)nc2ccccc2c1=O`, the results for the Activity in the data set with Mus musculus [1] and in the data set with Mus musculus [3] were 300 mg/kg and “Not Active”, respectively. Besides, the outcome with Mus musculus [2], with Mus musculus [5], in the data set on Mus musculus [6] and with Mus musculus [7] was inactive. Besides, the inhibition in vivo at 100 mg/kg with Mus musculus [4] was found to be 56%. Besides, the Time in the data set with Rattus norvegicus [8] is 186.46 s.
Consider `NC(=O)N1c2ccccc2C=Cc2ccccc21` [CARBAMAZEPINE], for which the Activity result in the data set on Mus musculus [1] was “Not Active”; with Mus musculus [3], “Not Active”; with Mus musculus [7], 300 mg/kg. Besides, the outcome in the data set with Mus musculus [2], with Mus musculus [5] and in the data set with Mus musculus [6] was inactive. For the same compound, the Time in the data set on Rattus norvegicus [9] worked out at 168.32 s.
Turning to `CCc1nc2ccccc2c(=O)n1NC(=O)Nc1ccc([N+](=O)[O-])cc1`, the Activity with Mus musculus [1] was 100 mg/kg; in the data set on Mus musculus [3], “Not Active”; with Mus musculus [5], 300 mg/kg. Moreover, the outcome in the data set with Mus musculus [2], with Mus musculus [6] and in the data set with Mus musculus [7] was inactive. In addition, in the data set with Mus musculus [4], the inhibition in vivo at 100 mg/kg was determined as 41%. Further, the Time with Rattus norvegicus [8] is recorded as 212.72 s.
With `CCc1nc2ccccc2c(=O)n1NC(=O)Nc1ccc(C)cc1`, the Activity is 300 mg/kg in the data set with Mus musculus [1], 300 mg/kg with Mus musculus [2], “Not Active” in the data set with Mus musculus [3] and 100 mg/kg in the data set with Mus musculus [5]. In the data set on Mus musculus [4], the inhibition in vivo at 100 mg/kg worked out at 55%. For the same compound, the result in the data set on Mus musculus [6] and in the data set with Mus musculus [7] was inactive. In the data set on Rattus norvegicus [8], the Time came to 243.42 s.
For the compound `O=C(Nc1ccc([N+](=O)[O-])cc1)Nn1c(-c2ccccc2)nc2ccccc2c1=O`, the Activity was 300 mg/kg in the data set on Mus musculus [1], “Not Active” with Mus musculus [3], 300 mg/kg in the data set with Mus musculus [5] and 300 mg/kg with Mus musculus [7]. The outcome in the data set on Mus musculus [2] and in the data set with Mus musculus [6] was inactive. Further, the inhibition in vivo at 100 mg/kg in the data set with Mus musculus [4] was determined as 42%. For the same compound, in the data set with Rattus norvegicus [8], the Time was determined as 199.19 s.
Consider `O=C(Nc1ccc(Br)cc1)Nn1c(-c2ccccc2)nc2ccccc2c1=O`, for which the Activity was 300 mg/kg in the data set on Mus musculus [1]; 300 mg/kg in the data set on Mus musculus [2]; “Not Active” in the data set with Mus musculus [3]; 100 mg/kg in the data set on Mus musculus [5]; 300 mg/kg in the data set with Mus musculus [7]. Also, in the data set with Mus musculus [4], the inhibition in vivo at 100 mg/kg is 58%. In addition, the outcome in the data set on Mus musculus [6] was inactive. In addition, in the data set with Rattus norvegicus [8], the Time turned out to be 228.53 s.
Take `O=C(Nc1ccc(F)cc1)Nn1c(-c2ccccc2)nc2ccccc2c1=O`: the Activity entry in the data set with Mus musculus [1] and in the data set on Mus musculus [3] was “Not Active” each time. Besides, the outcome with Mus musculus [2], with Mus musculus [5], in the data set with Mus musculus [6] and in the data set with Mus musculus [7] was inactive. Also, the inhibition in vivo at 100 mg/kg in the data set with Mus musculus [4] is 54%. Moreover, the Time in the data set with Rattus norvegicus [8] was found to be 211.14 s.
On to `CCOc1ccc(NC(=O)Nn2c(-c3ccccc3)nc3ccccc3c2=O)cc1`, for which the Activity is 100 mg/kg in the data set with Mus musculus [1] and “Not Active” with Mus musculus [3]. The outcome with Mus musculus [2], in the data set with Mus musculus [5], with Mus musculus [6] and in the data set with Mus musculus [7] was inactive. Besides, in the data set on Mus musculus [4], the inhibition in vivo at 100 mg/kg was determined as 53%. Also, the Time in the data set with Rattus norvegicus [8] came out at 273.22 s.
Take `CCc1nc2ccccc2c(=O)n1NC(=O)Nc1cccc(C)c1`: the Activity entry with Mus musculus [1] and with Mus musculus [3] was “Not Active” throughout. In addition, the outcome in the data set on Mus musculus [2], in the data set on Mus musculus [5], with Mus musculus [6] and with Mus musculus [7] was inactive. Also, in the data set with Mus musculus [4], the inhibition in vivo at 100 mg/kg is 53%. The Time in the data set with Rattus norvegicus [8] turned out to be 165.63 s.

As usually defined, the inhibition in vivo is the percentage by which the read-out fell short of the control.
